Entries after “also recorded” stand apart in the source; their conditions may differ.
Tests used:
[1] = tested on: hypocretin cell ablated narcoleptic mice (prepororexin/ataxin-3 transgenic); assay: Sleep parameters (EEG/EMG) in narcoleptic mice; format: in vivo; conditions: for Duration of continuous wakefulness: resting period (ZT 2)
Description: (§1) The polygraph signal (EEG (electroencephalography) and EMG (electromyography)) was captured with SleepSign (Kissei Comtech), and the sleep stage was visually scored with 10 sec epoch for wakefulness, non-REM sleep and REM sleep. Scoring criteria are: Wakefulness is characterized by desynchronized low-amplitude, mixed frequency (>4 Hz) EEG and high EMG activity. Rhythmic alpha (8-9 Hz) wave (with high EMG activities) may also appear. Non-REM is characterized by synchronized, high-amplitude, low-frequency (0.25-4 Hz) with reduced EMG activity (compared to wakefulness). EEG activity in REM sleep is similar to that in wakefulness, with desynchronized, mixed frequency low amplitude waves. Rhythmic alpha (8-9 Hz) wave with reduced EMG activities may also appear. […] activity during REM sleep is reduced even further and in many cases, completely absent. Some muscle twitching may be apparent in the EMG trace during REM sleep.
(§2) Three drug doses of the test compound (50, 100 and 150 mg/kg PO) plus vehicle, was orally administered at ZT 2 (Zeitgeber time: 2 hours after light on) or ZT14 (Zeitgeber time: 2 hours after light off) and the effects on sleep was monitored for 6 hours after the drug administration (the sleep data was collected for 30 hours after the drug injection, and are available for further analysis). The doses for modafinil were 50 and 200 mg/kg PO (plus vehicle), and modafinil was also administered at ZT 2 and ZT 14.
(§3) If the polygraph signals of some mice were not sufficient to score the sleep stage with accuracy (especially bad EMG), data from these animals were excluded, and the minimum of 5 animals (except for the highest dose of the test compound in wild-type mice in dark period, n=4) were included for the data analysis and number of animals were indicated in the figures.
(§4) Effects of test compound and modafinil on the amount of wake, non-REM sleep, REM sleep (cumulative seconds), number of episodes for each sleep stage during 6 hours, mean wake/sleep-bout lengths (seconds) were analyzed in each animal and the mean of each parameter was calculated in each genotype. The effects of compounds on wake and sleep amounts are useful to evaluate the wake promoting potency, and the number of episodes for each sleep stage and the mean wake/sleep bout length are parameters for evaluating the sleep fragmentation. Amphetamine and modafinil, two main wake-promoting compounds currently used for the treatment of EDS associated with various etiologies (narcolepsy, idiopathic hypersomnia and secondary EDS), are known to increase wake time and prolong wake bout length in normal and EDS conditions.
(§5) A comparison of the effects between hypocretin deficient and wild-type mice is very useful in determining if the wake-promotion of the test compound is dependent on the availability of hypocretins, and if there is a possible change in the sensitivity of the receptive mechanisms of test compound in narcoleptic mice due to the hypocretin ligand deficiency.

[2] = tested on: wild-type mice; assay: Spontaneous activity in the open field, wild-type mice; format: in vivo; conditions: WT mice; 2 mg/kg SC
Description: Male and female wild-type and homozygous mutant dopamine transporter KO mice (n˜10 mice/genotype/agent; produced by in vivo homologous recombination and bred at Duke University Medical Center, Durham, N.C.) were tested for spontaneous activity in the open field following a single injection of the vehicle or compound. Mice were placed into the open field for 30 min and administered SC the vehicle (sterile water), 2 mg/kg amphetamine, or three concentrations of the test compound (10, 30, 100 mg/kg). All drugs were given in a volume of 5 mL/kg. Animals were returned to the open field for an additional 90 min. Spontaneous activity was evaluated in an automated Omnitech Digiscan apparatus (Accuscan Instruments, Columbus, Ohio). […] Horizontal activity or locomotion was measured in terms of the total distance covered in cm, vertical activity or rearing was expressed in terms of the total numbers of vertical beam breaks, and stereotypy was quantified in terms of repetitive breaks of a given beam or beams with intervals of less than 1 sec. […] Data were analyzed by the Statistical Package for Social Sciences programs (version 11.0 for Windows; SPSS Science, Chicago, Ill.). The results for each dependent variable were analyzed by repeated analyses of variance (RMANOVA) for within subjects effects (group differences over time) and between-subjects effects (tests of main effects and interactions). […]

[3] = tested on: homozygous mutant dopamine transporter knockout (KO) mice; assay: Spontaneous activity in the open field, dopamine transporter KO mice; format: in vivo
Description: Male and female wild-type and homozygous mutant dopamine transporter KO mice (n˜10 mice/genotype/agent; produced by in vivo homologous recombination and bred at Duke University Medical Center, Durham, N.C.) were tested for spontaneous activity in the open field following a single injection of the vehicle or compound. […] All drugs were given in a volume of 5 mL/kg. Animals were returned to the open field for an additional 90 min. Spontaneous activity was evaluated in an automated Omnitech Digiscan apparatus (Accuscan Instruments, Columbus, Ohio). Activity was summated at 5 min intervals over the 2 h period of testing. Horizontal activity or locomotion was measured in terms of the total distance covered in cm, vertical activity or rearing was expressed in terms of the total numbers of vertical beam breaks, and stereotypy was quantified in terms of repetitive breaks of a given beam or beams with intervals of less than 1 sec. For the analyses, 10 WT and 10 KO mice were run in each of the treatment groups with approximately equal numbers of males and females assigned to each group. Data were analyzed by the Statistical Package for Social Sciences programs (version 11.0 for Windows; SPSS Science, Chicago, Ill.). The results for each dependent variable were analyzed by repeated analyses of variance (RMANOVA) for within subjects effects (group differences over time) and between-subjects effects (tests of main effects and interactions). Bonferroni corrected pair-wise comparisons were used as the post-hoc tests. A p<0.05 was considered significant.

[4] = tested on: littermate wild-type mice; assay: Sleep parameters (EEG/EMG) in littermate wild-type mice; format: in vivo; conditions: for Duration of continuous wakefulness: resting period (ZT 2)
Description: as §1, §2, §3, §4, §5

[5] = tested on: rats with sciatic nerve ligation; assay: Thermal hyperalgesia (hindpaw withdrawal latency, plantar tester) in rats with sciatic nerve ligation; format: in vivo, Sprague-Dawley rats; conditions: 30 mg/kg IP; for Mean paw withdrawal latency: n = 6, mean ± SEM
Description: Young adult male Sprague-Dawley rats (CD(SD)IGS, 150-200 g) were initially anesthetized with isoflurane in O2 by a mask and the surgical procedure was performed according to the method described by Bennett and Xie (1988). Briefly, the right sciatic nerves were loosely tied using ligatures. All experiments were conducted in accordance with the guidelines of the International Association for the Study of Pain. The behavioral tests were conducted at least 14 days postoperatively.
The test compound was dissolved in saline and administered intraperitoneally at 30 mg/kg to animals in a volume of 3 mL/kg body weight.
To test for thermal hyperalgesia, the thermal response was determined by the hindpaw withdrawal latency, using a plantar tester (UGO BASILE, Italy), and a modified method of Hargreaves et al. (1988). Rats were allowed to acclimate within plastic enclosures on a clear glass plate maintained at room temperature. A radiant heat source (intensity 90) was controlled with a timer and focused onto the plantar surface of the rat right hind paw encompassing the glabrous skin. Paw withdrawal stopped both heat source and timer. A maximal cut-off 30 sec was used to prevent tissue damage. Rats were assessed for thermal hyperalgesia predose (0 hr) and at 1, 4 and 8 hours after 30 mg/kg test compound administration.
Data are expressed as mean±standard error of mean (SEM). The values of behavioral signs of neuropathic pain at various postoperative time points were compared with those of the preoperative control period by a repeated-measure One-way Analysis of Variance (followed by Dunnett's post-hoc test). P-values less than 0.05 were considered to be significant.

[6] = target: T1, hNET (human norepinephrine transporter) (Homo sapiens, UniProt P23975); assay: cell-based; conditions: HEK-hNET cells; mean ± SEM; read-out: [3H]NE Uptake IC50
T1 construct: expressed in transfected cells; host or cells: HEK293 cells (ATCC), clonal, kept under geneticin selection
T1 sequence (P23975 whole entry): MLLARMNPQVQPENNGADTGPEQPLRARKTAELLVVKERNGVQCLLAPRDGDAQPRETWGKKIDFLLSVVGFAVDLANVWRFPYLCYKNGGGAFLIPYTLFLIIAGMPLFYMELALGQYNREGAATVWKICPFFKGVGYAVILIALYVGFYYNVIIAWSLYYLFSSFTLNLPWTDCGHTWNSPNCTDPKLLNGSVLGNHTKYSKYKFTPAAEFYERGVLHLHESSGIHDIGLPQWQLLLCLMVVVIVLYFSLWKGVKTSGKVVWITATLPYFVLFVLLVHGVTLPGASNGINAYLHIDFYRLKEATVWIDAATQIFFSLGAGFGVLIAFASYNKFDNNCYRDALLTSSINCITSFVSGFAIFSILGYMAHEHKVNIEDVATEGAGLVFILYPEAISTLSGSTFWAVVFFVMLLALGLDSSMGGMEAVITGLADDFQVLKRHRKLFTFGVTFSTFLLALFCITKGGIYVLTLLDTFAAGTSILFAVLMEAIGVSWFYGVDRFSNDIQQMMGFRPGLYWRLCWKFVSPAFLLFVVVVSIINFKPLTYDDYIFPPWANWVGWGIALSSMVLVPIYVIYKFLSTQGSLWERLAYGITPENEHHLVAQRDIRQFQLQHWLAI

[7] = target: T2, hSERT (human serotonin transporter) (Homo sapiens, UniProt P31645); assay: Inhibition of [125I]RTI-55 radioligand binding to hSERT in HEK293 cell membranes
T2 construct: expressed in transfected cells; host or cells: HEK293 cells (ATCC), clonal, kept under puromycin selection
T2 sequence (P31645 whole entry): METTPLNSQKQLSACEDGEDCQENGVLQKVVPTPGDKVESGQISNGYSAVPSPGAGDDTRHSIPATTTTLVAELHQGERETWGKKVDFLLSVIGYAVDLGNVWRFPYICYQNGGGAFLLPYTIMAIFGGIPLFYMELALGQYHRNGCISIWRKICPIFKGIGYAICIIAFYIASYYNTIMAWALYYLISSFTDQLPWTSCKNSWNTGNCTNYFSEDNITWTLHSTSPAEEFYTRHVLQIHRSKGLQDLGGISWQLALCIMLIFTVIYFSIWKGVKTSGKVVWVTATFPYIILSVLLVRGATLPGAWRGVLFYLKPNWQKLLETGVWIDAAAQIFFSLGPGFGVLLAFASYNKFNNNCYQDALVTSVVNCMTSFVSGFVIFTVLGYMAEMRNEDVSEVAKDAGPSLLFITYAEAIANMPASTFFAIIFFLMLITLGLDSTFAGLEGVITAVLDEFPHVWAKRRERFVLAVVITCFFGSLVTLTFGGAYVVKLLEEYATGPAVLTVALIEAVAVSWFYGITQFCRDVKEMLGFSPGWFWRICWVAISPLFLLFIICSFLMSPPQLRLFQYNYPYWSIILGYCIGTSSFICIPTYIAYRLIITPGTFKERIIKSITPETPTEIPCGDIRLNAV

[8] = target: T1, hNET (human norepinephrine transporter); assay: biochemical; format: binding; conditions: HEK-hNET cells, mean ± SEM
[9] = target: T3, hDAT (human dopamine transporter) (Homo sapiens, UniProt Q01959); assay: Inhibition of [125I]RTI-55 radioligand binding to hDAT in HEK293 cell membranes
T3 construct: expressed in transfected cells; host or cells: HEK293 cells (ATCC), clonal, kept under puromycin selection
T3 sequence (Q01959 whole entry): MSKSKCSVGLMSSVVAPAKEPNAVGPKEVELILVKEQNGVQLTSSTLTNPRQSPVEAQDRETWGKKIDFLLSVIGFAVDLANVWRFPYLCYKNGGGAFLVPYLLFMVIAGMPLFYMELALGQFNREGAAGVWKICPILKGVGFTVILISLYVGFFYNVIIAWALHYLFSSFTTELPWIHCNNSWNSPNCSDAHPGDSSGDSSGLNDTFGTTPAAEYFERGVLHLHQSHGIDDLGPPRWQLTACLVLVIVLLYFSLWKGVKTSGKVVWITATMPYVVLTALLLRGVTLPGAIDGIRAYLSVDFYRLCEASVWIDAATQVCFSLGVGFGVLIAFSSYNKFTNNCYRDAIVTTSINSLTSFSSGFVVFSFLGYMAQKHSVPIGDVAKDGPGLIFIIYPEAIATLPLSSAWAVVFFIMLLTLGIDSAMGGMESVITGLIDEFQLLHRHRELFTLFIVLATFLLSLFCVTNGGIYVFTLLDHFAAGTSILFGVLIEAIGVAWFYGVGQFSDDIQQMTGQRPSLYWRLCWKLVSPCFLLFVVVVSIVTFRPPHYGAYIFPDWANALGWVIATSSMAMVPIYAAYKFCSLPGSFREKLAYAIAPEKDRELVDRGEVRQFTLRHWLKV

[10] = target: T3, hDAT (human dopamine transporter); assay: Filtration assay for inhibition of [3H]dopamine uptake in HEK-hDAT cells; format: cell-based
[11] = resting period, PO, genotypes not separated

NC(=O)C[S+]([O-])C(c1ccccc1)c1ccccc1 (stereo not drawn) [modafinil, reference compound]
Wake amount versus wild-type baseline ([1]; narcoleptic mice, active period, 200 mg/kg PO): did not bring the wake amount to that of the wild-type baseline levels | Wakefulness ([1]; narcoleptic mice, active period, 50 and 200 mg/kg PO): dose-dependently increase wakefulness | Wake promoting effect compared with test compound ([1]; resting period, 200 mg/kg PO, genotypes not separated): roughly corresponds to 50 mg/kg of test compound | Wake promoting effects ([1]; resting period, 50 and 200 mg/kg PO, genotypes not separated): modest | Effect on REM sleep [1, 11]: did not strongly reduce REM sleep

CC(N)Cc1ccccc1 (stereo not drawn) [Amphetamine, reference compound]
Locomotor, rearing and stereotypical activities relative to vehicle controls [2]: increased | Locomotor, rearing and stereotypical activities relative to vehicle controls ([3]; 2 mg/kg SC): decreased

NC(=O)OC[C@H](N)Cc1ccccc1 [Test Compound, O-carbamoyl-(D)-phenylalaninol]
Duration of continuous wakefulness ([1]; narcoleptic mice, 50 mg/kg PO): up to 3 hours | Duration of continuous wakefulness ([1]; narcoleptic mice, 100 mg/kg PO): ≤ 4 h | Duration of continuous wakefulness ([1]; narcoleptic mice, 150 mg/kg PO): ≤ 5 h | Non-REM and REM sleep during the period of continuous wakefulness ([1]; narcoleptic mice, 50-150 mg/kg PO, resting period): completely suppressed | Wake-promoting effects ([1]; narcoleptic mice, active (dark) period (ZT 14), 50-150 mg/kg PO): much pronounced wake-promoting effects | Wake amounts ([1]; narcoleptic mice, active period, 100 and 150 mg/kg PO): brought up to the levels of wild-type mice | Amounts of non-REM and REM sleep ([1]; narcoleptic mice, active period, PO): brought down to the levels of wild-type mice | EEG patterns after administration ([1]; resting period, 50-150 mg/kg PO, genotypes not separated): no abnormal EEG patterns | Effect on REM sleep [1, 11]: potently reduced REM sleep | Duration of continuous wakefulness ([4]; 50 mg/kg PO): up to 3 hours | Duration of continuous wakefulness ([4]; 100 mg/kg PO): ≤ 4 h | Duration of continuous wakefulness ([4]; 150 mg/kg PO): ≤ 5 h | Non-REM and REM sleep during the period of continuous wakefulness ([4]; 50-150 mg/kg PO, resting period): completely suppressed | Wake-promoting effects ([4]; active (dark) period (ZT 14), 50-150 mg/kg PO): only small effects were observed | Mean paw withdrawal latency ([5]; 0 hr (predose)): 5.17 ± 0.27 s | Mean paw withdrawal latency ([5]; 1 hr post-injection): 6.33 ± 0.14 s | Mean paw withdrawal latency ([5]; 4 hr post-injection): 6.06 ± 0.21 s | Mean paw withdrawal latency ([5]; 8 hr post-injection): 5.63 ± 0.16 s | % of Antagonism (latency at time point / latency at 0 hr − 1) × 100 ([5]; 1 hr post-injection): (22.3%^@) | % of Antagonism (latency at time point / latency at 0 hr − 1) × 100 ([5]; 4 hr post-injection): (17.2%) | % of Antagonism (latency at time point / latency at 0 hr − 1) × 100 ([5]; 8 hr post-injection): (8.8%) | Paw withdrawal latency to a thermal stimulus (in words) ([5]; vs pre-injection (0 hr)): significantly increased the paw withdrawal latency | IC50 [6]: 4.4 µM | Ki [7]: 81.5 µM | Hill coefficient ([7]; HEK-hSERT cells, mean ± SEM): −2.28 ± 0.05 | Spontaneous activity compared with amphetamine ([3]; 100 mg/kg SC vs 2 mg/kg amphetamine): suppressed activities more efficiently than amphetamine | Spontaneous activity (locomotor, rearing, stereotypical activities) ([3]; 10, 30, 100 mg/kg SC, 90 min post-injection): selectively reduced activity of the KO mice in a dose-dependent manner; also recorded: reduced activities in a dose-dependent fashion | Hill coefficient [8]: −1.45 ± 0.34 | Ki ([8]; read-out: [125I]RTI-55 Binding Ki): 3.7 µM | Ki [9]: 14.2 µM | Hill coefficient ([9]; HEK-hDAT cells, mean ± SEM): −0.77 ± 0.12 | IC50 [10]: 2.9 µM

From patent US8623913B2, “Methods for treating restless legs syndrome” (priority 2010, dated 2014)
